Assay results from patent US8097708B2, “10a-Azalide compound” (Taisho Pharmaceutical Co., Ltd., priority 2006, dated 2012).
In brackets after ≈: the same amount, converted by molar mass.

Legend:
Experiment in all cases: In vitro antibacterial activity, microbroth dilution method (NCCLS method)
Assay type in all cases: cell-based
H. influenzae ATCC 43095 = conditions: Haemophilus influenzae, ATCC43095; bacteria symbol A = H. influenzae ATCC 43095; read-out: MIC values (minimum inhibitory concentration)
Procedure: (§1) In vitro antibacterial activities of the compounds of the present invention against various test bacteria were measured according to the microbroth dilution method (NCCLS method). As test compounds, the compounds of Examples 7, 23, 114, 126, 131, 210, 214, 231, 257, 261, 287, 363, 366, 563 and Comparative agent 1: clarithromycin were used. The results are shown as MIC values (minimum inhibitory concentration, μg/ml) in Table 21.

S. pneumoniae 205 = conditions: Streptococcus pneumoniae; bacteria symbol C = S. pneumoniae 205; read-out: MIC values (minimum inhibitory concentration)
Procedure: as §1

S. pneumoniae ATCC 49619 = conditions: Streptococcus pneumoniae, ATCC49619; bacteria symbol B = S. pneumoniae ATCC 49619; read-out: MIC values (minimum inhibitory concentration)
Procedure: as §1

| SMILES | MIC (H. influenzae ATCC 43095) | MIC (S. pneumoniae 205) | MIC (S. pneumoniae ATCC 49619) |
| --- | --- | --- | --- |
| CC[C@H]1OC(=O)[C@H](C)[C@@H](O[C@H]2C[C@@](C)(OC)[C@@H](O)[C@H](C)O2)[C@H](C)[C@@H](O[C@@H]2O[C@H](C)C[C@H](N(C)C)[C@H]2O)[C@](C)(OC)C[C@@H](C)C(=O)[C@H](C)[C@@H](O)[C@]1(C)O [Comparative agent 1, clarithromycin] | 4 µg/mL (≈ 5.35 µM) | > 128 µg/mL | 0.03 µg/mL (≈ 0.0401 µM) |
| CO[C@]1(C)C[C@H](O[C@H]2[C@H](C)[C@@H](O[C@@H]3O[C@H](C)C[C@H](N(C)C)[C@H]3O)[C@@](C)(OC)C[C@@H](C)[C@H](O)[C@H](C)N(C)C(C)C(C)OC(=O)[C@@H]2C)O[C@@H](C)[C@@H]1O (stereo partly drawn) [Example 261] | 4 µg/mL (≈ 5.56 µM) | 64 µg/mL (≈ 89 µM) | 0.12 µg/mL (≈ 0.167 µM) |
